Data from ChEMBL document CHEMBL1155363, “4,4-Disubstituted cyclohexylamine based CCR5 chemokine receptor antagonists as anti-HIV-1 agents” (Bioorg Med Chem Lett, 2009).

system: Human immunodeficiency virus 1; test: Antiviral activity against HIV1 Ba-L infected in HOS cells assessed as inhibition of viral infection; format: functional, organism-based; conditions: Human immunodeficiency virus 1, Ba-L

Point of comparison: `Cc1ccnc(C)c1C(=O)N[C@H]1CC[C@](CCCN2[C@@H]3CC[C@H]2C[C@@H](n2c(C)nc4ccccc42)C3)(c2ccccc2)CC1`, IC50 2190 nM. Against it:
- Cc1ccc(S(N)(=O)=O)c(C)c1C(=O)N[C@H]1CC[C@@](CCN2[C@@H]3CC[C@H]2C[C@@H](n2c(C)nc4ccccc42)C3)(c2ccccc2)CC1 — within 1.5-fold, 2550 nM
- Cc1nc2ccccc2n1[C@H]1C[C@H]2CC[C@@H](C1)N2CC[C@]1(c2ccccc2)CC[C@@H](NC(=O)c2ccc(Cl)c(S(N)(=O)=O)c2)CC1 — within 1.5-fold, 1630 nM
- Cc1ccc(S(N)(=O)=O)c(C)c1C(=O)N[C@H]1CC[C@](CCN2[C@@H]3CC[C@H]2C[C@@H](n2c(C)nc4ccccc42)C3)(c2ccccc2)CC1 — 2-fold lower, 1070 nM
- Cc1nc2ccccc2n1[C@H]1C[C@H]2CC[C@@H](C1)N2CC[C@]1(c2ccccc2)CC[C@H](NC(=O)c2ccc(F)c(S(N)(=O)=O)c2)CC1 — 4.6-fold lower, 480 nM
- CNS(=O)(=O)c1cc(Cl)c(C(=O)N[C@H]2CC[C@](CCN3[C@@H]4CC[C@H]3C[C@@H](n3c(C)nc5ccccc53)C4)(c3ccccc3)CC2)cc1F — 4.3-fold lower, 510 nM
- Cc1nc2ccccc2n1[C@H]1C[C@H]2CC[C@@H](C1)N2CC[C@]1(c2ccccc2)CC[C@H](NC(=O)c2cc(S(=O)(=O)NC(C)C)c(Cl)cc2F)CC1 — 3.7-fold lower, 590 nM
- CNS(=O)(=O)c1cc(C(=O)N[C@H]2CC[C@@H](CN3[C@@H]4CC[C@H]3C[C@@H](n3c(C)nc5ccccc53)C4)CC2)c(Cl)cc1F — higher, > 20000 nM
- Cc1nc2ccccc2n1[C@H]1C[C@H]2CC[C@@H](C1)N2CC[C@]1(c2ccccc2)CC[C@H](NC(=O)c2cc(NS(C)(=O)=O)c(Cl)cc2F)CC1 — within 1.5-fold, 1480 nM
- Cc1nc2ccccc2n1[C@H]1C[C@H]2CC[C@@H](C1)N2CCC[C@]1(c2ccccc2)CC[C@H](NC(=O)c2ccc(Cl)c(S(N)(=O)=O)c2)CC1 — 5.8-fold lower, 380 nM
- Cc1nc2ccccc2n1[C@H]1C[C@H]2CC[C@@H](C1)N2C[C@H]1CC[C@@H](NC(=O)c2ccc(Cl)c(S(N)(=O)=O)c2)CC1 — higher, > 20000 nM
- Cc1nc2ccccc2n1[C@H]1C[C@H]2CC[C@@H](C1)N2[C@]1(C)CC[C@H](NC(=O)c2ccc(Cl)c(S(N)(=O)=O)c2)CC1 — 2.5-fold lower, 870 nM
- Cc1nc2ccccc2n1[C@H]1C[C@H]2CC[C@@H](C1)N2[C@]1(C)CC[C@H](NC(=O)c2c(Cl)ccc(S(N)(=O)=O)c2Cl)CC1 — 9.1-fold higher, 20000 nM
- Cc1nc2ccccc2n1[C@H]1C[C@H]2CC[C@@H](C1)N2CC[C@]1(c2ccccc2)CC[C@H](NC(=O)c2ccc(Cl)c(S(N)(=O)=O)c2)CC1 — 38-fold lower, 58 nM
- Cc1nc2ccccc2n1[C@H]1C[C@H]2CC[C@@H](C1)N2CC[C@]1(c2ccccc2)CC[C@H](NC(=O)c2ccc(S(N)(=O)=O)cc2Cl)CC1 — 9.5-fold lower, 230 nM
- Cc1nc2ccccc2n1[C@H]1C[C@H]2CC[C@@H](C1)N2CC[C@]1(c2ccccc2)CC[C@H](NC(=O)c2ccc(S(N)(=O)=O)cc2F)CC1 — within 1.5-fold, 1800 nM
